# In patent EP2057185B1, “POLYMYXIN DERIVATIVES AND USES THEREOF” (Northern Antibiotics Oy, priority 2006, dated 2008):
# Bridge positions count the residues as written; N and C are the ends. Square brackets hold non-standard residues; d marks the D form. Peptide text beside a SMILES is read from it. * marks the point of attachment. Octanoyl = CCCCCCCC(=O)*; Dab = NCC[C@H](N)C(=O)O; Abu = CC[C@H](N)C(=O)O
# Key:
# [1] = system: C. freundii ATCC8090; experiment: Growth inhibition around wells on LB agar plates; format: cell-based, Citrobacter freundii; conditions: growth inhibition area around well
# Description: (§1) From an overnight-grown culture of IH3080 on LB agar, a suspension of approx. 10^8 cells/ml was prepared in 0.9% NaCl. Aliquots of this suspension were then pipetted on the agar plates and the plates were gently shaken to spread the suspension evenly on the entire surface of the plate. Thereafter, the unabsorbed part of the suspension was removed by using a Pasteur pipette. After the surface had dried, small wells (diameter, 2 mm) were drilled on the plates (five wells per plate) by using a sterile sharp-edged narrow metal tube, single-use pipette tip, and vacuum suction. Samples (4 µl and 10 µl) of the peptide solution in 0.9% NaCl (at concentrations of 1 µg/ml and 0.1 µg/ml) were then pipetted to the wells and the sample fluids were allowed to absorb. Controls included 0.9% NaCl solution without the compound to be tested. The plates were then incubated for 18 h at 37°C whereafter the diameters of growth inhibition zones around each well were measured; the diameter of the well itself was […]. Finally, the diameters were converted to surface areas of growth inhibition (in square mm).
# (§2) The susceptibility of eleven Gram-negative bacterial strains (nine different species) to NAB734 and polymyxin B was compared by using the susceptibility determination method described in Example 2. […]
# [2] = system: P. mirabilis ATCC29906; experiment: Growth inhibition around wells on LB agar plates; format: cell-based, Proteus mirabilis; conditions: growth inhibition area around well
# Description: as §1, §2
# [3] = system: S. marcescens ATCC8100; experiment: Growth inhibition around wells on LB agar plates; format: cell-based, Serratia marcescens; conditions: growth inhibition area around well
# Description: as §1, §2
# [4] = system: all strains (17) belonging to the group consisting of E. coli, K. oxytoca, E. cloacae, and C. freundii; experiment: E-strip MIC, summary over 17 strains of Example 8; format: cell-based
# Description: (§3) MICs were determined by using E-strips (Biodisk Ltd., Solna, Sweden) according to the manufacturer's instructions.
# (§4) The strains originated from ATCC (11 strains), CCUG (11 strains), and NCTC (The National Collection of Type Cultures, Colindale, U.K.; 2 strains). Eight strains (the F-strains) were purchased from Mobidiag Ltd., Helsinki, Finland.
# [5] = system: three strains of A. baumannii; experiment: E-strip MIC, summary over A. baumannii strains of Example 8; format: cell-based, Acinetobacter baumannii; conditions: NAB7061 4 µg/ml
# Description: as §3, §4
# [6] = system: P. mirabilis ATCC29906; experiment: MIC by E-strips on Mueller-Hinton agar with or without NAB7061 (4 µg/ml); format: cell-based, Proteus mirabilis
# Description: as §3, §4
# [7] = system: Ac. baumannii ATCC19606; experiment: as above; format: cell-based, Acinetobacter baumannii
# Description: as §3, §4
# [8] = system: Ac. baumannii F263; experiment: as above; format: cell-based, Acinetobacter baumannii
# Description: as §3, §4
# [9] = system: K. pneumoniae F136; experiment: as above; format: cell-based, Klebsiella pneumoniae
# Description: as §3, §4
# [10] = system: K. pneumoniae F145; experiment: as above; format: cell-based, Klebsiella pneumoniae
# Description: as §3, §4
# [11] = system: K. pneumoniae CCUG45421; experiment: as above; format: cell-based, Klebsiella pneumoniae
# Description: as §3, §4
# [12] = system: K. pneumoniae F144; experiment: as above; format: cell-based, Klebsiella pneumoniae
# Description: as §3, §4
# [13] = system: E. coli CCUG41424; experiment: as above; format: cell-based, Escherichia coli
# Description: as §3, §4
# [14] = system: E. coli NCTC13351; experiment: as above; format: cell-based, Escherichia coli
# Description: as §3, §4
# [15] = system: E. coli CCUG41432; experiment: as above; format: cell-based, Escherichia coli
# Description: as §3, §4
# [16] = system: E. coli CCUG41422; experiment: as above; format: cell-based, Escherichia coli
# Description: as §3, §4
# [17] = system: E. coli CCUG41425; experiment: as above; format: cell-based, Escherichia coli
# Description: as §3, §4
# [18] = system: S. marcescens ATCC8100; experiment: as above; format: cell-based, Serratia marcescens
# Description: as §3, §4
# [19] = system: Ps. aeruginosa ATCC 27853; experiment: Growth inhibition around wells on LB plates containing rifampin (sensitization); format: cell-based, Pseudomonas aeruginosa; conditions: well containing 4 µg
# [20] = system: E. coli ATCC25922
# Description: as §3, §4
molecule,measurement,setting,value
Polymyxin B,Antibacterial activity 4 µg,[1]; 4 µg,95 square millimeters
same,Antibacterial activity 10 µg,[1]; 10 µg,154 square millimeters
same,Antibacterial activity 4 µg,[2]; 4 µg,0 square millimeters
same,Antibacterial activity 10 µg,[2]; 10 µg,0 square millimeters
same,Antibacterial activity 4 µg,[3]; 4 µg,0 square millimeters
same,Antibacterial activity 10 µg,[3]; 10 µg,0 square millimeters
"CCCCCCCC(=O)N[C@H](C(=O)N[C@@H](CC)C(=O)N[C@H]1CCNC(=O)[C@H]([C@@H](C)O)NC(=O)[C@H](CCN)NC(=O)[C@H](CCN)NC(=O)[C@H](CC(C)C)NC(=O)[C@@H](Cc2ccccc2)NC(=O)[C@H](CCN)NC1=O)[C@@H](C)O [NAB 7061, OA-Thr-Abu-cy[Dab-Dab-DPhe-Leu-Dab-Dab-Thr-]] (Octanoyl-T[Abu][Dab][Dab][dF]L[Dab][Dab]T; lactam 3-C)",MIC of rifampin in the presence of NAB7061 (4 µg/ml),[4],≤ 0.125 µg/mL
same,resulting MIC values to clarithromycin,[5],≤ 0.5 µg/mL
same,resulting MIC values to rifampin,[5],≤ 0.125 µg/mL
same,MIC (µg/ml) of rifampin in the presence of 4 µg/ml of NAB 7061,[6],1 to 6 µg/mL
same,Sensitization factor to clarithromycin,[6]; 4 µg/ml of NAB 7061,<2
same,Sensitization factor to rifampin,[6]; 4 µg/ml of NAB 7061,<2
same,Sensitization factor to clarithromycin,[18]; 4 µg/ml of NAB 7061,<2
same,Sensitization factor to rifampin,[18]; 4 µg/ml of NAB 7061,<2
same,"Antibacterial activity, rifampin 0",[19]; no rifampin (control),0 square millimeters
same,"Antibacterial activity, rifampin 0.1",[19]; rifampin 0.1 µg/ml,0 square millimeters
same,"Antibacterial activity, rifampin 0.3",[19]; rifampin 0.3 µg/ml,0 square millimeters
same,MIC (µg/ml) of clarithromycin in the presence of 4 µg/ml of NAB 7061,[20],"0,094 - 0,125 µg/ml"
same,MIC (µg/ml) of rifampin in the presence of 4 µg/ml of NAB 7061,[20],"0,01 - 0,047 µg/ml"
